From ChEMBL document CHEMBL3797136, “Insights into the structure-activity relationship of the anticancer compound ZJ-101: A critical role played by the cyclohexene ring” (Bioorg Med Chem Lett, 2016)
pIC50: −log10 of the molar value.

What was measured:
Type in all cases: functional, cell-based
RKO = experiment: Antiproliferative activity against human RKO cells assessed as cell viability by Alamar Blue assay
[1] = Antiproliferative activity against human […] assessed as cell viability by Alamar Blue assay
[2] = Antiproliferative activity against human SF295 cells assessed as cell viability by Alamar Blue assay; details: SF-295
MDA-MB-231 = experiment: Antiproliferative activity against human MDA-MB-231 cells assessed as cell viability by Alamar Blue assay

SMILES	pIC50 (RKO)	pIC50 [1]	pIC50 [2]	pIC50 (MDA-MB-231)
CC(=O)N[C@H](C)[C@@H](O)[C@@H](C)[C@@H]1OC(=O)/C=C/C=C(C)\C=C\[C@]2(C)CCC=C[C@@H]2/C=C(C)/C=C/[C@H]1C	6.81	7.44	7.18	7.37
CC(=O)N[C@H](C)[C@@H](O)[C@@H](C)[C@@H]1OC(=O)/C=C/C=C(C)\C=C\c2ccccc2/C=C(C)/C=C/[C@H]1C	< 5.30	5.66	< 5.30	< 5.30
